Measurements published in patent US6156700A, “3-(1,2-Benzisothiazol- and isoxazol-5-yl)-2,4(1H,3H)-pyrimidinedione or thione and 3-(1,2-benzisothiazol- and isoxazol-5-yl)-4(3H)-pyrimidinone or thione herbicidal agents” (American Cyanmid Company, priority 1998, dated 2000).

Key:
[1] = tested on: Lambsquarters, Common, Chenopodium album; test: Preemergence herbicidal evaluation, CHEAL; assay type: in vivo, L.; settings: 0.2500 kg/ha
How it was run: (§1)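 Sow seeds in soil-filled cups; spray aqueous acetone compound solution at about 0.0156–0.500 kg/ha; keep on greenhouse benches with routine watering; after four to five weeks, rate visual injury 0–9 compared with control plants.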

[2] = tested on: Lambsquarters, Common, Chenopodium album; test: Postemergence herbicidal evaluation, CHEAL; assay type: in vivo, L.
How it was run: (§2)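 Greenhouse postemergence test. Seedlings about two weeks old sprayed (40 psi) with compound in 50/50 acetone/water, 0.5% TWEEN 20, at rates near 0.0157–0.500 kg/ha; rated 0–9 by eye at 4–5 weeks.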

[3] = tested on: Soybean, Williams, Glycine max; test: Postemergence herbicidal evaluation, GLXMAW; assay type: in vivo, (L.) Merr. cv Williams
How it was run: as §2

[4] = tested on: Foxtail, Green, Setaria viridis; test: Preemergence herbicidal evaluation, SETVI; assay type: in vivo, (L.) Beau; settings: 0.2500 kg/ha
How it was run: as §1

[5] = tested on: ECHORC Watergrass (Calif.); test: Postemergence weed control, flooded paddy (Table IV); assay type: in vivo, Echinochloa oryzoides; design: scale not given here
How it was run: (§3)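 Herbicidal effect is scored visually on a rating scale three to four weeks after compounds, in aqueous/acetone 50/50 v/v, are added to flood water at roughly 0.0313 to 0.500 kg/ha. Plants: weeds 3 to 5 cm tall, rice at 1.5 to 2.5 leaves.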

[6] = tested on: Rice, Tebonnet, Oryza sativa; test: Postemergence herbicidal evaluation, ORYSAT; assay type: in vivo, (L.) Tebonnet
How it was run: as §2

CYPSE Flatsedge [7] = test: Preemergence weed control, flooded paddy (Table III); assay type: in vivo, Cyperus serotinus; design: scale not given here
How it was run: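 Seeds or propagules sown in silt loam under 1.5 to 3 cm standing flood water; compound in 50/50 aqueous/acetone pipetted into the water at about 0.0313 to 0.500 kg/ha active ingredient. Greenhouse-held; herbicidal effect rated on a scale 3-4 weeks after treatment.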

ORYSAT Rice, Tebonnet = test: Tolerance of transplanted rice to post-transplant application (Table III); assay type: in vivo, Oryza sativa; design: scale not given here; settings: crop tolerance
How it was run: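 Two ten-day-old Tebonnet seedlings were transplanted into flooded silt loam, with water kept 1.5–3 cm above the soil. Three days after transplanting, the flooded surface was treated with compound in 50/50 aqueous/acetone at about 0.0313–0.500 kg/ha. Injury was rated in the greenhouse 3–4 weeks after treatment.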

CYPIR Rice Flatsedge = test: Postemergence weed control, flooded paddy (Table IV); assay type: in vivo, Cyperus iria; design: scale not given here
How it was run: as §3

Soybean, Glycine max [8] = test: Preemergence herbicidal evaluation, GLXMA; assay type: in vivo, (L.) Merr.; settings: 0.2500 kg/ha
Excerpt: (§4) Results of herbicide evaluation are expressed on a rating scale (0-9). The scale is based upon a visual observation of plant stand, vigor, malformation, size, chlorosis and overall plant appearance as compared with a control.
The preemergence herbicidal activity of the test compounds of the present invention is exemplified by the following tests in which the seeds of a variety of monocotyledonous and dicotyledonous plants are separately mixed with potting soil and planted on top of approximately one inch of soil in separate pint cups. After planting, the cups are sprayed with the selected aqueous acetone solution containing test compound in sufficient quantity to provide the equivalent of about 0.0156 to 0.500 kg per hectare of test compound per cup. The treated cups are then placed on greenhouse benches, watered and cared for in accordance with conventional greenhouse procedures. From four to five weeks after treatment, the tests are terminated and each cup is examined and rated according to the rating system provided in Example 185.
The compounds evaluated are reported by compound number given in Example 185.

Soybean, Glycine max [9] = test: Postemergence herbicidal evaluation, GLXMA; assay type: in vivo, (L.) Merr.; settings: 0.2500 kg/ha
Description: In the tests, seedling plants are grown in jiffy flats for about two weeks. The test compounds are dispersed in 50/50 acetone/water mixtures containing 0.5% TWEEN®20, a polyoxyethylene sorbitan monolaurate surfactant of Atlas Chemical Industries, in sufficient quantities to provide the equivalent of about 0.0157 kg to 0.500 kg per hectare of active compound when applied to the plants through a spray nozzle operating at 40 psi for a predetermined time. After spraying, the plants are placed on greenhouse benches and are cared for in accordance with conventional greenhouse procedures. From four to five weeks after treatment, the seedling plants are examined and rated according to the rating system set forth below. Where more than one test is involved for a given compound, the data are averaged.
as §4

[10] = tested on: Wheat, Winter, cv Riband, Triticum aestivum; test: Preemergence herbicidal evaluation, TRZAWR; assay type: in vivo; settings: 0.2500 kg/ha
How it was run: as §1

[11] = tested on: Barnyardgrass, Echinochloa crus-galli; test: Preemergence herbicidal evaluation, ECHCG; assay type: in vivo, (L.) Beau; settings: 0.2500 kg/ha
How it was run: as §1

Galium, Galium aparine = test: Preemergence herbicidal evaluation, GALAP; assay type: in vivo; settings: 0.2500 kg/ha
How it was run: as §1

CYPSE Flatsedge [12] = test: Postemergence weed control, flooded paddy (Table IV); assay type: in vivo, Cyperus serotinus; design: scale not given here
How it was run: as §3

[13] = tested on: Velvetleaf, Abutilon theophrasti; test: Postemergence herbicidal evaluation, ABUTH; assay type: in vivo, Medic.
How it was run: as §2

[14] = tested on: Morningglory, Ivyleaf, Ipomoea hederacea; test: Postemergence herbicidal evaluation, IPOHE; assay type: in vivo, (L.) Jacq.; settings: 0.0630 kg/ha
How it was run: as §2

Cc1nsc2ccc(-n3c(=O)cc(C(F)(F)F)n(C)c3=O)cc12 [Compound 6, 1-Methyl-3-(3-methyl-1,2-benzisothiazol-5-yl)-6-(trifluoromethyl)-2,4(1H,3H)-pyrimidinedione] was tested, and the “herbicide rating (0-9)” value [1] was 9.0, the “herbicide rating (0-9)” value ([2]; 0.0630 kg/ha) was 7.0 and the “herbicide rating (0-9)” value ([2]; 0.2500 kg/ha) was 9.0. For the same compound, the “herbicide rating (0-9)” value ([3]; 0.0630 kg/ha) was 4.8, the “herbicide rating (0-9)” value ([3]; 0.2500 kg/ha) was 7.0 and the “herbicide rating (0-9)” value [4] was 9.0. For the same compound, the herbicidal effect rating ([5]; 0.1250 kg/ha) was 9.0, the herbicidal effect rating ([5]; 0.2500 kg/ha) was 9.0 and the herbicidal effect rating ([5]; 0.5000 kg/ha) was 9.0. The “herbicide rating (0-9)” value ([6]; 0.0630 kg/ha) was 1.8, the “herbicide rating (0-9)” value ([6]; 0.2500 kg/ha) was 5.0 and the herbicidal effect rating (CYPSE Flatsedge [7]; 0.0625 kg/ha) was 4.0. It also gave a herbicidal effect rating (CYPSE Flatsedge [7]; 0.1250 kg/ha) of 7.0, a herbicidal effect rating (CYPSE Flatsedge [7]; 0.2500 kg/ha) of 9.0 and a herbicidal effect rating (CYPSE Flatsedge [7]; 0.5000 kg/ha) of 9.0. It also gave a herbicidal effect rating (ORYSAT Rice, Tebonnet; 0.0625 kg/ha) of 8.0, a herbicidal effect rating (ORYSAT Rice, Tebonnet; 0.1250 kg/ha) of 8.0 and a herbicidal effect rating (ORYSAT Rice, Tebonnet; 0.2500 kg/ha) of 8.0. It also gave a herbicidal effect rating (ORYSAT Rice, Tebonnet; 0.5000 kg/ha) of 8.0, a herbicidal effect rating (CYPIR Rice Flatsedge; 0.1250 kg/ha) of 9.0 and a herbicidal effect rating (CYPIR Rice Flatsedge; 0.2500 kg/ha) of 9.0. For the same compound, the herbicidal effect rating (CYPIR Rice Flatsedge; 0.5000 kg/ha) was 9.0, the “herbicide rating (0-9)” value (Soybean, Glycine max [8]) was 9.0 and the “herbicide rating (0-9)” value (Soybean, Glycine max [9]) was 6.0. The “herbicide rating (0-9)” value [10] was 8.0, the “herbicide rating (0-9)” value [11] was 9.0 and the “herbicide rating (0-9)” value (Galium, Galium aparine) was 9.0. The herbicidal effect rating (CYPSE Flatsedge [12]; 0.1250 kg/ha) was 7.0, the herbicidal effect rating (CYPSE Flatsedge [12]; 0.2500 kg/ha) was 7.0 and the herbicidal effect rating (CYPSE Flatsedge [12]; 0.5000 kg/ha) was 9.0. For the same compound, the “herbicide rating (0-9)” value ([13]; 0.0630 kg/ha) was 9.0, the “herbicide rating (0-9)” value ([13]; 0.2500 kg/ha) was 9.0 and the “herbicide rating (0-9)” value [14] was 5.0.
For COC(=O)COc1ccc(C)cc1-c1nsc2ccc(-n3c(=O)cc(C(F)(F)F)n(C)c3=O)cc12 [Compound 2, Methyl {{2-{5-[3,6-dihydro-3-methyl-4-(trifluoromethyl) -2,6-dioxo-1(2H)-pyrimidinyl]-1,2-benzisothiazol-3-yl]-p-tolyl}oxy}acetate], the “herbicide rating (0-9)” value [1] was 9.0, the “herbicide rating (0-9)” value ([2]; 0.0630 kg/ha) was 9.0 and the “herbicide rating (0-9)” value ([2]; 0.2500 kg/ha) was 9.0. The “herbicide rating (0-9)” value ([3]; 0.0630 kg/ha) was 8.8, the “herbicide rating (0-9)” value [4] was 9.0 and the herbicidal effect rating ([5]; 0.1250 kg/ha) was 7.0. The herbicidal effect rating ([5]; 0.2500 kg/ha) was 9.0, the herbicidal effect rating ([5]; 0.5000 kg/ha) was 9.0 and the “herbicide rating (0-9)” value ([6]; 0.0630 kg/ha) was 7.8. For the same compound, the “herbicide rating (0-9)” value ([6]; 0.2500 kg/ha) was 9.0, the herbicidal effect rating (CYPSE Flatsedge [7]; 0.0313 kg/ha) was 0.0 and the herbicidal effect rating (CYPSE Flatsedge [7]; 0.0625 kg/ha) was 0.0. It also gave a herbicidal effect rating (CYPSE Flatsedge [7]; 0.1250 kg/ha) of 0.0, a herbicidal effect rating (CYPSE Flatsedge [7]; 0.2500 kg/ha) of 0.0 and a herbicidal effect rating (CYPSE Flatsedge [7]; 0.5000 kg/ha) of 0.0. For the same compound, the herbicidal effect rating (ORYSAT Rice, Tebonnet; 0.0313 kg/ha) was 2.0, the herbicidal effect rating (ORYSAT Rice, Tebonnet; 0.0625 kg/ha) was 3.0 and the herbicidal effect rating (ORYSAT Rice, Tebonnet; 0.1250 kg/ha) was 3.0. The herbicidal effect rating (ORYSAT Rice, Tebonnet; 0.2500 kg/ha) was 5.0, the herbicidal effect rating (ORYSAT Rice, Tebonnet; 0.5000 kg/ha) was 9.0 and the herbicidal effect rating (CYPIR Rice Flatsedge; 0.1250 kg/ha) was 9.0. For the same compound, the herbicidal effect rating (CYPIR Rice Flatsedge; 0.2500 kg/ha) was 9.0, the herbicidal effect rating (CYPIR Rice Flatsedge; 0.5000 kg/ha) was 9.0 and the “herbicide rating (0-9)” value (Soybean, Glycine max [8]) was 7.0. For the same compound, the “herbicide rating (0-9)” value (Soybean, Glycine max [9]) was 9.0, the “herbicide rating (0-9)” value [10] was 4.0 and the “herbicide rating (0-9)” value [11] was 8.3. For the same compound, the “herbicide rating (0-9)” value (Galium, Galium aparine) was 9.0, the herbicidal effect rating (CYPSE Flatsedge [12]; 0.1250 kg/ha) was 0.0 and the herbicidal effect rating (CYPSE Flatsedge [12]; 0.2500 kg/ha) was 0.0. For the same compound, the herbicidal effect rating (CYPSE Flatsedge [12]; 0.5000 kg/ha) was 0.0, the “herbicide rating (0-9)” value ([13]; 0.0630 kg/ha) was 9.0 and the “herbicide rating (0-9)” value ([13]; 0.2500 kg/ha) was 9.0. The “herbicide rating (0-9)” value [14] was 9.0.
